# Marks after values point to notes of the source that are not given here.
# Tests used:
# Assay type in all cases: cell-based
# [1] = tested on: P. intermedia virulence genes; assay: Virulence gene expression in multi-species biofilm (SYBR RT-qPCR); details: relative to control = 1
# Method: (§1) Biofilms are grown vertically on Calcium Deficient Hydroxyapatite (CAD-HA) disks (Hitemco Medical, Old Bethpage, USA) using the Amsterdam Active Adhesion model. Biofilms are allowed to establish during 24 h (37° C., 170 rpm) under microaerophilic conditions (6% O2, 7% CO2, 7% H2, 80% N2). After this 24 h, disks are rinsed 3 times a day for 3 minutes (RT, 250 rpm), for 3 consecutive days, by transferring the lid containing the disks to a new 24-well plate containing 2 mL/well of the appropriate substrate solution. As a negative control, PBS (pH 5.7) without substrate supplementation is used.
# (§2) The virulence of the substrate-treated multi-species biofilms are evaluated by analyzing the relative expression of 33 genes that are recognized as being related to some form of virulence and from 4 periodontal pathogens.
# (§3) Expression of bacterial virulence genes is analyzed through SYBR RT-qPCR and normalized for bacterial housekeeping gene expression. […] These effects are illustrated in Tables 6a and 6b:
# Note, for Table 6d, fold changes in virulence gene expression are determined relatively to the control condition through the 2^^-ΔΔCt method and are shown as the geometric mean (C.I.) (n = 3) of the 2^^-ΔΔCt values. All substrates are dissolved in PBS at a concentration of 1 M (upper part) or 1%(w/v) (lower part). Values between 0 and 1 represent relative downregulation, values >1 represent relative upregulation. […] NADG: N-acetyl-D-glucosamine; C.I.: 95% confidence interval.
# [2] = tested on: P. gingivalis virulence genes; assay: as above; details: relative to control, 2^-ΔΔCt, n = 3
# Method: as §1, §2, §3
# (§4) Note, for Tables 6a and 6b, that fold changes in virulence gene expression are determined relative to the control condition through the 2^^-ΔΔCt method and are shown as the geometric mean (C.I.) (n = 3) of the 2^^-ΔΔ ^Ct values. All substrates are dissolved in PBS at a concentration of 1 M (upper part) or 1%(w/v) (lower part). Values between 0 and 1 represent relative downregulation, values >1 represent relative upregulation. […] NADG: N-acetyl-D-glucosamine; C.I.: 95% confidence interval.
# [3] = tested on: A. actinomycetemcomitans virulence genes; assay: as above
# Method: as §1, §2, §3, §4
# [4] = tested on: F. nucleatum virulence genes; assay: as above; details: relative to control = 1, 2^-ΔΔCt, n = 3
# Method: as §1, §2, §3
# Note, for Table 6c, fold changes in virulence gene expression are determined relative to the control condition through the 2^^-ΔΔCt method and are shown as the geometric mean (C.I.) (n = 3) of the 2^^-ΔΔCt values. All substrates are dissolved in PBS at a concentration of 1 M (upper part) or 1%(w/v) (lower part). Values between 0 and 1 represent relative downregulation, values >1 represent relative upregulation. […] NADG: N-acetyl-D-glucosamine; C.I.: 95% confidence interval.
# multi-species biofilms = assay: Organic acid levels in supernatant of multi-species biofilms (ion chromatography); details: >0 production, <0 consumption, n = 3
# Method: as §1
# Levels of organic acids in the filter sterilized supernatant of the multi-species biofilms are measured using a 761 Compact Ion Chromatograph (Metrhohm, Switzerland) with a Metrosep Organic acids Guard/4.6 guard column. The supernatants from the substrate-treated multi-species biofilms are analyzed to gain more insight into the influence of the substrates on organic acid consumption/production.
# [5] = lower part of Table 6d, head prints 1 M (lower part 1%(w/v))
# [6] = upper part of Table 6d, substrate 1 M, n = 3
# [7] = lower part of Table 6a, substrate 1%(w/v), relative to control = 1
# [8] = substrate 1 M, relative to control = 1, 2^-ΔΔCt, n = 3
# [9] = substrate 1 M, listed as α-D-lactose
structure (smiles),measurement,setting,value
"OC[C@H]1O[C@@H](O[C@H]2[C@H](O)[C@@H](O)[C@@H](O)O[C@@H]2CO)[C@H](O)[C@@H](O)[C@H]1O [D-lactose, α-D-lactose]","fold change in DnaJ expression, geometric mean (95% C.I.)",[1]; [5],0.29 (0.18-0.47)^∗ fold
same,"fold change in DnaK expression, geometric mean (95% C.I.)",[1]; [5],1.16 (0.55-2.44) fold
same,"fold change in ECF expression, geometric mean (95% C.I.)",[1]; [5],0.26 (0.12-0.58)^∗ fold
same,"fold change in GroES expression, geometric mean (95% C.I.)",[1]; [5],0.91 (0.41-2.03) fold
same,"fold change in HtpG expression, geometric mean (95% C.I.)",[1]; [5],0.40 (0.15-1.07)^∗ fold
same,"fold change in KpsD expression, geometric mean (95% C.I.)",[1]; [5],0.72 (0.39-1.35) fold
same,"fold change in adpc expression, geometric mean (95% C.I.)",[1]; [5],0.41 (0.30-0.55) fold
same,"fold change in clpB expression, geometric mean (95% C.I.)",[1]; [5],0.85 (0.23-3.13) fold
same,"fold change in inpA expression, geometric mean (95% C.I.)",[1]; [5],0.52 (0.41-0.66)^∗ fold
same,"fold change in phg expression, geometric mean (95% C.I.)",[1]; [5],0.39 (0.19-0.77)^∗ fold
same,"fold change in DnaJ expression, geometric mean (95% C.I.)",[1]; [6],0.25 (0.05-1.25)^∗ fold
same,"fold change in DnaK expression, geometric mean (95% C.I.)",[1]; [6],0.34 (0.28-0.42)^∗ fold
same,"fold change in ECF expression, geometric mean (95% C.I.)",[1]; [6],1.72 (0.56-5.25) fold
same,"fold change in GroES expression, geometric mean (95% C.I.)",[1]; [6],0.29 (0.09-0.91)^∗ fold
same,"fold change in HtpG expression, geometric mean (95% C.I.)",[1]; [6],0.19 (0.12-0.31)^∗ fold
same,"fold change in KpsD expression, geometric mean (95% C.I.)",[1]; [6],0.62 (0.21-1.87) fold
same,"fold change in adpc expression, geometric mean (95% C.I.)",[1]; [6],0.30 (0.23-0.39)^∗ fold
same,"fold change in clpB expression, geometric mean (95% C.I.)",[1]; [6],0.38 (0.08-1.75)^∗ fold
same,"fold change in inpA expression, geometric mean (95% C.I.)",[1]; [6],0.47 (0.27-0.82)^∗ fold
same,"fold change in phg expression, geometric mean (95% C.I.)",[1]; [6],0.12 (0.08-0.18)^∗ fold
same,"fold change in fimA expression, geometric mean (95% C.I.)",[2]; substrate 1 % (w/v),1.48 (0.27-8.02) fold
same,"fold change in kgp expression, geometric mean (95% C.I.)",[2]; substrate 1 % (w/v),1.95 (0.45-8.59) fold
same,"fold change in partC expression, geometric mean (95% C.I.)",[2]; substrate 1 % (w/v),0.47 (0.07-3.04) fold
same,"fold change in rgpA expression, geometric mean (95% C.I.)",[2]; substrate 1 % (w/v),1.49 (0.70-3.20) fold
same,"fold change in fimA expression, geometric mean (95% C.I.)",[2]; substrate 1 M,0.06 (0.00-1.08)^∗ fold
same,"fold change in kgp expression, geometric mean (95% C.I.)",[2]; substrate 1 M,<LOD
same,"fold change in partC expression, geometric mean (95% C.I.)",[2]; substrate 1 M,0.03 (0.01-0.17)^∗ fold
same,"fold change in rgpA expression, geometric mean (95% C.I.)",[2]; substrate 1 M,0.01 (0.00-4.60)^∗ fold
same,"fold change in aae expression, geometric mean (95% C.I.)",[3]; [7],1.36 (0.70-2.67) fold
same,"fold change in apaH expression, geometric mean (95% C.I.)",[3]; [7],0.84 (0.29-2.49) fold
same,"fold change in cdtB expression, geometric mean (95% C.I.)",[3]; [7],0.66 (0.21-2.03) fold
same,"fold change in emaA expression, geometric mean (95% C.I.)",[3]; [7],0.34 (0.25-0.45)^∗ fold
same,"fold change in flp expression, geometric mean (95% C.I.)",[3]; [7],0.81 (0.08-7.83) fold
same,"fold change in ltxA expression, geometric mean (95% C.I.)",[3]; [7],0.04 (0.02-0.08)^∗ fold
same,"fold change in omp29 expression, geometric mean (95% C.I.)",[3]; [7],0.81 (0.73-0.89) fold
same,"fold change in omp100 expression, geometric mean (95% C.I.)",[3]; [7],0.34 (0.23-0.49)^∗ fold
same,"fold change in orf859 expression, geometric mean (95% C.I.)",[3]; [7],0.97 (0.37-2.54) fold
same,"fold change in pgA expression, geometric mean (95% C.I.)",[3]; [7],0.55 (0.41-0.74) fold
same,"fold change in vapA expression, geometric mean (95% C.I.)",[3]; [7],0.90 (0.60-1.35) fold
same,"fold change in vppA expression, geometric mean (95% C.I.)",[3]; [7],0.40 (0.14-1.15)^∗ fold
same,"fold change in aae expression, geometric mean (95% C.I.)",[3]; [8],0.03 (0.01-0.22)^∗ fold
same,"fold change in apaH expression, geometric mean (95% C.I.)",[3]; [8],0.04 (0.01-0.21)^∗ fold
same,"fold change in cdtB expression, geometric mean (95% C.I.)",[3]; [8],0.02 (0.00-0.21)^∗ fold
same,"fold change in emaA expression, geometric mean (95% C.I.)",[3]; [8],0.08 (0.06-0.11)^∗ fold
same,"fold change in flp expression, geometric mean (95% C.I.)",[3]; [8],0.44 (0.10-1.94) fold
same,"fold change in ltxA expression, geometric mean (95% C.I.)",[3]; [8],0.01 (0.00-0.08)^∗ fold
same,"fold change in omp29 expression, geometric mean (95% C.I.)",[3]; [8],0.42 (0.33-0.52)^∗ fold
same,"fold change in omp100 expression, geometric mean (95% C.I.)",[3]; [8],0.08 (0.04-0.15)^∗ fold
same,"fold change in orf859 expression, geometric mean (95% C.I.)",[3]; [8],0.05 (0.00-0.79)^∗ fold
same,"fold change in pgA expression, geometric mean (95% C.I.)",[3]; [8],4.30 (2.21-8.37)^∗ fold
same,"fold change in vapA expression, geometric mean (95% C.I.)",[3]; [8],0.22 (0.13-0.36)^∗ fold
same,"fold change in vppA expression, geometric mean (95% C.I.)",[3]; [8],0.17 (0.06-0.43)^∗ fold
same,"fold change in pgA expression, geometric mean (95% C.I.)","[3]; substrate 1 M, relative to control = 1, 2^-ΔΔCt, n = 3, listed as α-D-lactose",4.3 fold
same,"fold change in ABC transp. perm. (ABC transporter permease) expression, geometric mean (95% C.I.)",[4]; substrate 1% (w/v),0.25 (0.08-0.78)^∗ fold
same,"fold change in EF-G expression, geometric mean (95% C.I.)",[4]; substrate 1% (w/v),0.13 (0.03-0.51)^∗ fold
same,"fold change in but. -coA transf. (butyrate-acetoacetate CoA-transferase) expression, geometric mean (95% C.I.)",[4]; substrate 1% (w/v),0.57 (0.40-0.83) fold
same,"fold change in hemin receptor expression, geometric mean (95% C.I.)",[4]; substrate 1% (w/v),0.17 (0.03-0.94)^∗ fold
same,"fold change in hemolysin expression, geometric mean (95% C.I.)",[4]; substrate 1% (w/v),1.00 (0.60-1.68) fold
same,"fold change in ompA expression, geometric mean (95% C.I.)",[4]; substrate 1% (w/v),1.13 (0.58-2.19) fold
same,"fold change in transposase expression, geometric mean (95% C.I.)",[4]; substrate 1% (w/v),1.26 (0.51-3.13) fold
same,"fold change in ABC transp. perm. (ABC transporter permease) expression, geometric mean (95% C.I.)",[4]; substrate 1 M,16.97 (5.93-48.61)^∗ fold
same,"fold change in EF-G expression, geometric mean (95% C.I.)",[4]; substrate 1 M,1.54 (0.94-2.53) fold
same,"fold change in but. -coA transf. (butyrate-acetoacetate CoA-transferase) expression, geometric mean (95% C.I.)",[4]; substrate 1 M,3.88 (0.87-17.43)* fold
same,"fold change in hemin receptor expression, geometric mean (95% C.I.)",[4]; substrate 1 M,36.87 (17.27-78.74)^∗ fold
same,"fold change in hemolysin expression, geometric mean (95% C.I.)",[4]; substrate 1 M,6.34 (1.36-29.47)^∗ fold
same,"fold change in ompA expression, geometric mean (95% C.I.)",[4]; substrate 1 M,1.26 (0.79-2.03) fold
same,"fold change in transposase expression, geometric mean (95% C.I.)",[4]; substrate 1 M,172.87 (147.10-203.20)^∗ fold
same,"acetate level in biofilm supernatant, mean ± SD",multi-species biofilms; substrate 1% (w/v),367 ± 33 mg/L
same,"butyrate level in biofilm supernatant, mean ± SD",multi-species biofilms; substrate 1% (w/v),2061 ± 121 mg/L
same,"formate level in biofilm supernatant, mean ± SD",multi-species biofilms; substrate 1% (w/v),3929 ± 253 mg/L
same,"lactate level in biofilm supernatant, mean ± SD",multi-species biofilms; substrate 1% (w/v),-125 ± 0 mg/L
same,"propionate level in biofilm supernatant, mean ± SD",multi-species biofilms; substrate 1% (w/v),2140 ± 141 mg/L
same,"acetate level in biofilm supernatant, mean ± SD",multi-species biofilms; substrate 1 M,881 ± 73^∗ mg/L
same,"butyrate level in biofilm supernatant, mean ± SD",multi-species biofilms; substrate 1 M,0±0^∗ mg/L
same,"formate level in biofilm supernatant, mean ± SD",multi-species biofilms; substrate 1 M,84 ± 9^∗ mg/L
same,"lactate level in biofilm supernatant, mean ± SD",multi-species biofilms; substrate 1 M,3791 ± 169^∗ mg/L
same,"propionate level in biofilm supernatant, mean ± SD",multi-species biofilms; substrate 1 M,1306 ± 175^∗ mg/L
same,"acetate level in biofilm supernatant, mean ± SD",multi-species biofilms; [9],881 ± 73 mg/L
same,"butyrate level in biofilm supernatant, mean ± SD",multi-species biofilms; [9],0 ± 0 mg/L
same,"formate level in biofilm supernatant, mean ± SD",multi-species biofilms; [9],84 ± 9 mg/L
same,"lactate level in biofilm supernatant, mean ± SD",multi-species biofilms; [9],3791 ± 169 mg/L
same,"propionate level in biofilm supernatant, mean ± SD",multi-species biofilms; [9],1306 ± 175 mg/L
